For 18 compounds, ring closure, yield after HPLC, IC50 and Ki results are on record in patent US20210130401A1, “PEPTIDOMIMETIC INHIBITORS OF THE WDR5-MLL INTERACTION” (THE REGENTS OF THE UNIVERSITY OF MICHIGAN, priority 2017, published 2021).

The conditions of series [1]: rcm bond, 16-membered ring, Hoveyda-Grubbs II (0.5+0.5 eq), CH2Cl2, 45.0 °C, 3 steps.
The target in series [2] is T1, WDR5 (Homo sapiens, UniProt P61964).
T1 construct: N-terminal His-tagged WDR5 protein (residues 24-334), named WDR5Δ23; made in house; host or cells: E. coli Rosetta 2 (DE3)
Put plainly: fluorescence polarization (FP) based competitive binding assay to WDR5 protein. A general note: Fluorescence polarisation rises when a labelled molecule tumbles more slowly, as on binding a larger partner.
Experimental: The plates were incubated at room temperature on a shaker for 3h, and then the mP values were measured using the Tecan Infinite M-1000 plate reader (Tecan U.S., Research Triangle Park, N.C.).

The test system of series [3] is MOLM-13 leukemia cells carrying MLL-AF9 fusion. Put plainly: cell viability assay (WST-8), MOLM-13. Type of series: cell-based. The settings on record: Homo sapiens, MOLM-13, 96 h, read-out: MOLM-13 IC50 (μM). On the technique in general: Tetrazolium dyes change colour on reduction, which living cells bring about.
Experimental: To assess cell viability, MOLM-13 leukemia cells carrying MLL-AF9 fusion, MV4;11 leukemia cells carrying MLL-AF4 fusion or HL-60 leukemia cells carrying no MLL fusion were seeded 1×10^4 cell/well in 96-well plates and treated with an inhibitor for 4 days at different concentrations, in culture media containing 0.2% DMSO as the final concentration. Cell viability was determined using the WST-8 cell proliferation assay kit (Dojindo Molecular Technologies) according to manufacturer's instructions. Three independent experiments in triplicates were performed.
[4] abbreviates: calculated from IC50 by published equation, read-out: Binding Affinity to WDR5 Ki ± SD.
Where [5] appears, read: read-out: Binding Affinity to WDR5 IC50 ± SD.

Read-outs that look alike come from different tables or passages of the source. Starred links: 1 amine or outer side, 2 acyl side, 3 side chain; linkers in the order of their positions; H or OH if unused. Positions of bridges follow the written chain, without caps; N, C: chain ends. Non-standard residues stand in square brackets, D forms with d. Residues, ends and D or L forms follow the SMILES beside them. *: point of attachment. Arg(Nω,Nω'-propylene) = N[C@@H](CCCNC1=NCCCN1)C(=O)O; Orn(2-imidazolinyl) = N[C@@H](CCCNC1=NCCN1)C(=O)O; dαMeDab = C[C@](CCN[*:3])(N[*:1])C(=O)[*:2]; dPhg(4-F) = N[C@@H](C(=O)O)c1ccc(F)cc1; dPhg(2-F) = N[C@@H](C(=O)O)c1ccccc1F; dPhg = N[C@@H](C(=O)O)c1ccccc1; Pyridin(2-yl) = c1ccc(*)nc1; dOrn = NCCC[C@@H](N)C(=O)O; Isobutyryl = CC(C)C(=O)*; Orn = NCCC[C@H](N)C(=O)O; Nva = CCC[C@H](N)C(=O)O; Abu = CC[C@H](N)C(=O)O Bounds are passed on as bounds.

Take `CC[C@@H]1NC(=O)[C@H](CCCNC(=N)NS(=O)(=O)c2c(C)c(C)c3c(c2C)CC(C)(C)O3)NC(=O)[C@](C)(NC(=O)C(C)C)CC=CCN(C)C(=O)[C@@H](c2ccc(F)cc2)NC1=O`: the ring closure, yield after HPLC in series [1] (from (R)—N-((6S,9S,12R)-9-ethyl-12-(4-fluorophenyl)-1-imino-14-methyl-7,10,13-trioxo-1-(2,2,4,6,7-pentamethyl-2,3-dihydrobenzofuran-5-sulfonamido)-2,8,11,14-tetraazaheptadec-16-en-6-yl)-2-isobutyramido-2-methylpent-4-enamide) stood at 11%.

`CC[C@@H]1NC(=O)[C@H](CCCNC(=N)NS(=O)(=O)c2c(C)c(C)c3c(c2C)CC(C)(C)O3)NC(=O)[C@](C)(NC(=O)C(C)C)CC=CCN(C)C(=O)[C@@H](c2ccccc2)NC1=O` displayed a ring closure, yield after HPLC in series [1] (from (R)—N-((6S,9S,12R)-9-ethyl-1-imino-14-methyl-7,10,13-trioxo-1-(2,2,4,6,7-pentamethyl-2,3-dihydrobenzofuran-5-sulfonamido)-12-phenyl-2,8,11,14-tetraazaheptadec-16-en-6-yl)-2-isobutyramido-2-methylpent-4-enamide) of 18%.

As to `CC[C@@H]1NC(=O)[C@H](CCCNc2ccccn2)NC(=O)[C@](C)(NC(=O)C(C)C)CCNC(=O)[C@@H](c2ccccc2)NC1=O` [Cpd. No. 12, N-((3R,6S,9S,12R)-6-ethyl-12-methyl-2,5,8,11-tetraoxo-3-phenyl-9-(3-(pyridin-2-ylamino)propyl)-1,4,7,10-tetraazacyclotetradecan-12-yl)isobutyramide] (Isobutyryl-[dαMeDab][Orn](Pyridin(2-yl))[Abu][dPhg]; lactam 1-C), the IC50 was 3.25 nM in series [2] and above 10 µM in series [3]. Further, the Ki in series [2] is below 1 nM.

For the compound `CC[C@@H]1NC(=O)[C@H](CCCNC2=NCCN2)NC(=O)[C@](C)(NC(=O)C(C)C)CCNC(=O)[C@@H](c2ccccc2)NC1=O` [Cpd. No. 17, N-((3R,6S,9S,12R)-9-(3-((4,5-dihydro-1H-imidazol-2-yl)amino)propyl)-6-ethyl-12-methyl-2,5,8,11-tetraoxo-3-phenyl-1,4,7,10-tetraazacyclotetradecan-12-yl)isobutyramide] (Isobutyryl-[dαMeDab][Orn(2-imidazolinyl)][Abu][dPhg]; lactam 1-C), in series [2], the IC50 worked out at 2.4 nM and the inhibition constant Ki is below 1 nM. Also, in series [3], the IC50 came to 0.088 µM.

In series [2], `CC[C@@H]1NC(=O)[C@H](CCCNC(=N)N)NC(=O)[C@](C)(NC(=O)C(C)C)CCNC(=O)[C@@H](c2ccc(F)cc2)NC1=O` [Cpd. No. 53, N-((3R,6S,9S,12R)-6-ethyl-3-(4-fluorophenyl)-9-(3-guanidinopropyl)-12-methyl-2,5,8,11-tetraoxo-1,4,7,10-tetraazacyclotetradecan-12-yl)isobutyramide] (Isobutyryl-[dαMeDab]R[Abu][dPhg(4-F)]; lactam 1-C) yielded an IC50 of 0.878 nM and a Ki below 1 nM. In series [3], the IC50 stood at 0.38 µM.

As for `CC[C@@H]1NC(=O)[C@H](CCCNC(=N)N)NC(=O)[C@H](NC(=O)C(C)C)CCCNC(=O)[C@@H](c2ccccc2)NC1=O` [Cpd. No. 72, N-((3R,6S,9S,12R)-6-ethyl-9-(3-guanidinopropyl)-2,5,8,11-tetraoxo-3-phenyl-1,4,7,10-tetraazacyclopentadecan-12-yl)isobutyramide] (Isobutyryl-[dOrn]R[Abu][dPhg]; lactam 1-C), the Ki in series [2] (setting [4]) was 32.9 ± 5.3 nM. In addition, the half-inhibitory concentration (IC50) in series [2] (setting [5]) is 164 ± 26 nM.

With `CC[C@@H]1NC(=O)[C@H](CCCNC(=N)N)NC(=O)[C@H](NC(=O)C(C)C)CCCCNC(=O)[C@@H](c2ccccc2)NC1=O` [Cpd. No. 73, N-((3R,6S,9S,12R)-6-ethyl-9-(3-guanidinopropyl)-2,5,8,11-tetraoxo-3-phenyl-1,4,7,10-tetraazacyclohexadecan-12-yl)isobutyramide] (Isobutyryl-[dK]R[Abu][dPhg]; lactam 1-C), the Ki in series [2] (setting [4]) is 60.3 ± 11.9 nM. Also, the IC50 in series [2] (setting [5]) turned out to be 298 ± 58 nM.

On to `CC[C@@H]1NC(=O)[C@H](CCCNC(=N)N)NC(=O)[C@](C)(NC(=O)C(C)C)CCNC(=O)[C@@H](c2ccccc2F)NC1=O` [Cpd. No. 79, N-((3R,6S,9S,12R)-6-ethyl-3-(2-fluorophenyl)-9-(3-guanidinopropyl)-12-methyl-2,5,8,11-tetraoxo-1,4,7,10-tetraazacyclotetradecan-12-yl)isobutyramide] (Isobutyryl-[dαMeDab]R[Abu][dPhg(2-F)]; lactam 1-C), for which the IC50 came to 0.32 nM in series [2] and 0.35 µM in series [3]. The same compound returned a Ki in series [2] below 1 nM.

For `CC[C@@H]1NC(=O)[C@H](CCCNC(=N)N)NC(=O)[C@](C)(NC(=O)C(C)C)CCNC(=O)[C@@H](c2cccc(F)c2)NC1=O` [Cpd. No. 80, N-((3R,6S,9S,12R)-6-ethyl-3-(3-fluorophenyl)-9-(3-guanidinopropyl)-12-methyl-2,5,8,11-tetraoxo-1,4,7,10-tetraazacyclotetradecan-12-yl)isobutyramide], in series [2], the IC50 turned out to be 2.87 nM and the Ki was below 1 nM. In series [3], the IC50 turned out to be 0.42 µM.

For the compound `CC[C@@H]1NC(=O)[C@H](CCCNC(=N)N)NC(=O)[C@](C)(NC(=O)C(C)C)CCNC(=O)[C@@H](c2ccc3ccccc3c2)NC1=O` [Cpd. No. 82, N-((3R,6S,9S,12R)-6-ethyl-9-(3-guanidinopropyl)-12-methyl-3-(naphthalen-2-yl)-2,5,8,11-tetraoxo-1,4,7,10-tetraazacyclotetradecan-12-yl)isobutyramide], in series [2], the IC50 stood at 2.3 nM and the Ki is below 1 nM. Moreover, in series [3], the IC50 worked out at 0.054 µM.

Take `CC[C@@H]1NC(=O)[C@H](CCCNC(=N)N)NC(=O)[C@](C)(NC(=O)C(C)C)CCNC(=O)[C@@H](c2cccc(Cl)c2)NC1=O` [Cpd. No. 84, N-((3R,6S,9S,12R)-3-(3-chlorophenyl)-6-ethyl-9-(3-guanidinopropyl)-12-methyl-2,5,8,11-tetraoxo-1,4,7,10-tetraazacyclotetradecan-12-yl)isobutyramide]: in series [2], the IC50 amounted to 1.48 nM and the Ki was below 1 nM. Also, in series [3], the IC50 was found to be 0.51 µM.

For the compound `CCC[C@@H]1NC(=O)[C@H](CCCNC(=N)N)NC(=O)[C@](C)(NC(=O)C(C)C)CCNC(=O)[C@@H](c2ccccc2)NC1=O` [Cpd. No. 88, N-((3R,6S,9S,12R)-9-(3-guanidinopropyl)-12-methyl-2,5,8,11-tetraoxo-3-phenyl-6-propyl-1,4,7,10-tetraazacyclotetradecan-12-yl)isobutyramide] (Isobutyryl-[dαMeDab]R[Nva][dPhg]; lactam 1-C), the IC50 was 2.38 nM in series [2] and 6.33 µM in series [3]. Also, the Ki in series [2] was below 1 nM.

In series [2], `CC(C)C(=O)N[C@]1(C)CCNC(=O)[C@@H](c2ccccc2)NC(=O)[C@H](C(C)C)NC(=O)[C@H](CCCNC(=N)N)NC1=O` [Cpd. No. 89, N-((3R,6S,9S,12R)-9-(3-guanidinopropyl)-6-isopropyl-12-methyl-2,5,8,11-tetraoxo-3-phenyl-1,4,7,10-tetraazacyclotetradecan-12-yl)isobutyramide] (Isobutyryl-[dαMeDab]RV[dPhg]; lactam 1-C) displayed an IC50 of 1.83 nM and an inhibition constant Ki below 1 nM. Moreover, the IC50 in series [3] is above 10 µM.

In series [2], `CC[C@@H]1NC(=O)[C@H](CCCNC(=N)NC(C)=O)NC(=O)[C@](C)(NC(=O)C(C)C)CCNC(=O)[C@@H](c2ccccc2)NC1=O` [Cpd. No. 91, N-((3R,6S,9S,12R)-9-(3-(3-acetylguanidino)propyl)-6-ethyl-12-methyl-2,5,8,11-tetraoxo-3-phenyl-1,4,7,10-tetraazacyclotetradecan-12-yl)isobutyramide] (Isobutyryl-[dαMeDab]R(Ac)[Abu][dPhg]; lactam 1-C) showed a concentration for half-maximal inhibition (IC50) of 3.65 nM and a Ki below 1 nM. For the same compound, the IC50 in series [3] turned out to be 0.47 µM.

In series [2], `CC[C@@H]1NC(=O)[C@H](CCCNC2=NCCCN2)NC(=O)[C@](C)(NC(=O)C(C)C)CCNC(=O)[C@@H](c2ccccc2)NC1=O` [Cpd. No. 92, N-((3R,6S,9S,12R)-6-ethyl-12-methyl-2,5,8,11-tetraoxo-3-phenyl-9-(3-((1,4,5,6-tetrahydropyrimidin-2-yl)amino)propyl)-1,4,7,10-tetraazacyclotetradecan-12-yl)isobutyramide] (Isobutyryl-[dαMeDab][Arg(Nω,Nω'-propylene)][Abu][dPhg]; lactam 1-C) yielded an IC50 of 1.86 nM and a Ki below 1 nM. The IC50 in series [3] is 0.033 µM.

On to `CC[C@@H]1NC(=O)[C@H](CCCNC(=N)N)NC(=O)[C@](C)(NC(=O)C(C)C)CCNC(=O)[C@@H](c2ccc(OC)cc2)NC1=O` [Cpd. No. 93, N-((3R,6S,9S,12R)-6-ethyl-9-(3-guanidinopropyl)-3-(4-methoxyphenyl)-12-methyl-2,5,8,11-tetraoxo-1,4,7,10-tetraazacyclotetradecan-12-yl)isobutyramide], for which the IC50 in series [2] is 1.79 nM; in series [3], 0.083 µM. Further, the Ki in series [2] was below 1 nM.

In series [2], `CC[C@@H]1NC(=O)[C@H](CCCNC(=N)N)NC(=O)[C@](C)(NC(=O)C(C)C)CCNC(=O)[C@@H](c2cccc(OC)c2)NC1=O` [Cpd. No. 94, N-((3R,6S,9S,12R)-6-ethyl-9-(3-guanidinopropyl)-3-(3-methoxyphenyl)-12-methyl-2,5,8,11-tetraoxo-1,4,7,10-tetraazacyclotetradecan-12-yl)isobutyramide] gave a half-maximal inhibitory concentration (IC50) of 4 nM and a Ki below 1 nM. The IC50 in series [3] amounted to 0.56 µM.

In series [2], `CC[C@@H]1NC(=O)[C@H](CCCNC2=NCCCN2)NC(=O)[C@](C)(NC(=O)C(C)C)CCNC(=O)[C@@H](c2ccc3ccccc3c2)NC1=O` [Cpd. No. 98, N-((3R,6S,9S,12R)-6-ethyl-12-methyl-3-(naphthalen-2-yl)-2,5,8,11-tetraoxo-9-(3-((1,4,5,6-tetrahydropyrimidin-2-yl)amino)propyl)-1,4,7,10-tetraazacyclotetradecan-12-yl)isobutyramide] showed an IC50 of 2.54 nM and a Ki below 1 nM. Further, in series [3], the IC50 was 0.039 µM.

What is called IC50 is the concentration at which inhibition is half-maximal. One may read the Ki as a dissociation constant, usually derived from enzyme kinetics or from competition with a known ligand.
